Test results: PubChem BioAssay AID2060887 (Molecular Pharmacology Branch, DTP, NCI, 2025)

System: 782815-120-R-J1-PDC complex spheroid viability
Test: Anticancer human tumor 782815-120-R-J1-PDC patient-derived colon adenocarcinoma cell line growth inhibition [RAS]
Conditions: for IC50: curve of first compound; for viability, T/C: stronger effect = lower value; active = viability on the fitted dose curve at most 10% of control; inactive = the rest
Excerpt: RAS pathway inhibitors in Combinations in Complex Spheroids
A high-throughput screen of multi-cell type tumor spheroids was designed to identify active combinations of RAS pathway inhibitors and targeted small molecules. Complex spheroids include a stromal component modeled by human endothelial cells (HUVEC) and fibroblasts modeled by human mesenchymal stem cells (MSCs). The concentration ranges selected for each drug and investigational agent were based upon clinically achievable concentrations if the clinical Cmax of the agent was known.
Compounds. The drugs and investigational agents: abemaciclib (NSC768073), cobimetinib (NSC768068), divarasib (GDC6063, NSC841802), docetaxel (NSC628503), GDC-1971 (RLY-1971, NSC841576), gemcitabine (NSC613327), inavolisib (NSC800729), ipatasertib (NSC767898), KB-0742 (NSC834161), MRTX-1133 (NSC836407), osimertinib (NSC779217), RMC-4630 (NSC839698), RMC-6236 (NSC851965), RMC-6291 (NSC852671), Ro-3306 (NSC812927), sapanisertib (NSC764658), SN-38 (NSC673596), staurosporine (NSC755774), SY5609 (NSC837396), and tovorafenib (DAY101, NSC766906), were obtained from the National Cancer Institute (NCI) Developmental Therapeutics Program Chemical Repository. The FDA-approved anticancer drug set is available from the NCI Developmental Therapeutics Program. […] The stock solutions were prepared in dimethyl sulfoxide (DMSO, Sigma-Aldrich, St. Louis, MO, cat. D2650) at 800-fold the tested concentration and stored at -70 degrees C prior to their use. All drugs and investigational agents were tested over a range starting from a high concentration at or near the clinical Cmax and decreasing in half-log increments. If the clinical Cmax for an agent had not been determined, the highest concentration tested was 10 microM.
Cell Culture. All cells were maintained in an incubator at 37 degrees C and 5% CO2 with 95% humidity. The PDC lines were cultured according to standard operating procedures established by the NCI PDMR. All PDCs were thawed and cultured in Matrigel-coated flasks prepared with a working solution of 1X Ham's F-12 nutrient mix, without supplementation (Invitrogen, Waltham, MA, cat. 11765054), 100 U/mL penicillin-streptomycin (Invitrogen, cat. 15140122), and 2.5% Matrigel (Corning Inc., Corning, NY, cat. 354248) for the first three passages. The 362531-283-R-J2-PDC and 782815-120-R-J1-PDC lines were cultured in 6C/Colon 1B media, which includes advanced DMEM/F-12 (Thermo Fisher Scientific, cat. 12634028), 10 mM HEPES (Thermo Fisher Scientific, cat. 15630080), 1X GlutaMAX supplement (Thermo Fisher Scientific, cat. 35050061), 0.1 mg/mL primocin (InvivoGen, San Diego, CA, cat. ant-pm-2), 10% defined fetal bovine serum, heat inactivated (HyClone Laboratories Inc., Logan, UT, cat. SH30070.03HI), 50% L-WRN conditioned media (ATCC, cat. CRL-3276), 1.25 mM N-Acetyl-L-cysteine (Sigma-Aldrich, cat. A9165), 10 mM nicotinamide (Sigma-Aldrich, cat. N0636), 1X B-27 supplement (Thermo Fisher Scientific, cat. 17504044), 1X N-2 supplement (Thermo Fisher Scientific, cat. 17502048), 50 ng/mL human EGF (Thermo Fisher Scientific, cat. PHG0311), and 10 microM Y-27632 dihydrochloride (Tocris Bioscience, cat. 1254). The K12877-001-R-J1-PDC line was cultured in 6I media, which includes all 6C/Colon 1B media plus 10 ng/mL human FGF-10 (PeproTech, cat. 100-26), 1 ng/mL human FGF-2 (PeproTech, cat. 100-18B), 1 µM prostaglandin E2 (Tocris Bioscience, cat. 2296), […] hydrocortisone (Sigma-Aldrich, cat. H4001), and […] bovine insulin (Sigma-Aldrich, cat. I6634). The K86415-001-R-J1-PDC line was cultured in 6D media, which includes all 6C/Colon 1B media components minus the L-WRN conditioned media. The 485176-168-R4-J1-PDC was cultured in PANC media, which includes all 6C/Colon 1B media plus 100 ng/mL human FGF-10 (PeproTech, cat. 100-26), 500 nM SB-431542 (Selleckchem, cat. S1067), and 10 nM gastrin (Tocris Bioscience, cat. 3006). […]

[1] = second compound 0.0316 µM, first compound 0.0316 µM
[2] = second compound 0.0316 µM, first compound 0.1 µM
[3] = second compound 0.0316 µM, first compound 0.316 µM
[4] = second compound 0.0316 µM, first compound 1 µM
[5] = second compound 0.0316 µM, first compound 3.16 µM
[6] = second compound 0.0316 µM, first compound 10 µM
[7] = second compound 0.1 µM, first compound 0.0316 µM
[8] = second compound 0.1 µM, first compound 0.1 µM
[9] = second compound 0.1 µM, first compound 0.316 µM
[10] = second compound 0.1 µM, first compound 1 µM
[11] = second compound 0.1 µM, first compound 3.16 µM
[12] = second compound 0.1 µM, first compound 10 µM
[13] = second compound 0.316 µM, first compound 0.0316 µM
[14] = second compound 0.316 µM, first compound 0.1 µM
[15] = second compound 0.316 µM, first compound 0.316 µM
[16] = second compound 0.316 µM, first compound 1 µM
[17] = second compound 0.316 µM, first compound 3.16 µM
[18] = second compound 0.316 µM, first compound 10 µM
[19] = second compound 1 µM, first compound 0.0316 µM
[20] = second compound 1 µM, first compound 0.1 µM
[21] = second compound 1 µM, first compound 0.316 µM
[22] = second compound 1 µM, first compound 1 µM
[23] = second compound 1 µM, first compound 3.16 µM
[24] = second compound 1 µM, first compound 10 µM
[25] = second compound 3.16 µM, first compound 0.0316 µM
[26] = second compound 3.16 µM, first compound 0.1 µM
[27] = second compound 3.16 µM, first compound 0.316 µM
[28] = second compound 3.16 µM, first compound 1 µM
[29] = second compound 3.16 µM, first compound 3.16 µM
[30] = second compound 3.16 µM, first compound 10 µM
[31] = second compound 10 µM, first compound 0.0316 µM
[32] = second compound 10 µM, first compound 0.1 µM
[33] = second compound 10 µM, first compound 0.316 µM
[34] = second compound 10 µM, first compound 1 µM
[35] = second compound 10 µM, first compound 3.16 µM
[36] = second compound 10 µM, first compound 10 µM
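Note: spheroids exposed to compounds for 7 days before reading.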

Cc1nc(N2CCC3(CC2)COC(C)C3N)c(CO)nc1Sc1ccnc(N)c1Cl (centres undefined) + C#Cc1c(F)ccc2cc(O)cc(-c3ncc4c(N5CC6CCC(C5)N6)nc(OCC56CCCN5CC(F)C6)nc4c3F)c12
> 10 µM: IC50 (second compound 0.0316 µM) | IC50 (second compound 0.1 µM) | IC50 (second compound 0.316 µM) | IC50 (second compound 1 µM) | IC50 (second compound 3.16 µM) | IC50 (second compound 10 µM)
inactive: viability, T/C [1] 94.9% | viability, T/C [2] 99.1% | viability, T/C [3] 97.7% | viability, T/C [4] 90.2% | viability, T/C [5] 91.5% | viability, T/C [6] 95.2% | viability, T/C [7] 96% | viability, T/C [8] 109% | viability, T/C [9] 106% | viability, T/C [10] 99.7% | viability, T/C [11] 105% | viability, T/C [12] 98.7% | viability, T/C [13] 104% | viability, T/C [14] 102% | viability, T/C [15] 91.9% | viability, T/C [16] 94.7% | viability, T/C [17] 92.1% | viability, T/C [18] 99.7% | viability, T/C [19] 94.3% | viability, T/C [20] 90.1% | viability, T/C [21] 104% | viability, T/C [22] 88.8% | viability, T/C [23] 102% | viability, T/C [24] 98.1% | viability, T/C [25] 99.3% | viability, T/C [26] 96.8% | viability, T/C [27] 86% | viability, T/C [28] 93.6% | viability, T/C [29] 97% | viability, T/C [30] 92.9% | viability, T/C [31] 101% | viability, T/C [32] 96.7% | viability, T/C [33] 93.4% | viability, T/C [34] 92.6% | viability, T/C [35] 105% | viability, T/C [36] 92.3%

NC1c2ccccc2OC12CCN(c1cnc3c(N4CCCc5ncccc54)n[nH]c3n1)CC2 (centres undefined) + C#Cc1c(F)ccc2cc(O)cc(-c3ncc4c(N5CC6CCC(C5)N6)nc(OCC56CCCN5CC(F)C6)nc4c3F)c12
inactive: viability, T/C [1] 110% | viability, T/C [2] 104% | viability, T/C [3] 111% | viability, T/C [4] 95.3% | viability, T/C [5] 99.8% | viability, T/C [6] 84% | viability, T/C [7] 103% | viability, T/C [8] 96% | viability, T/C [9] 110% | viability, T/C [10] 106% | viability, T/C [11] 94.4% | viability, T/C [12] 76.6% | viability, T/C [13] 99.6% | viability, T/C [14] 105% | viability, T/C [15] 103% | viability, T/C [16] 106% | viability, T/C [17] 96.7% | viability, T/C [18] 90.4% | viability, T/C [19] 109% | viability, T/C [20] 102% | viability, T/C [21] 110% | viability, T/C [22] 106% | viability, T/C [23] 105% | viability, T/C [24] 83.7% | viability, T/C [25] 102% | viability, T/C [26] 97.1% | viability, T/C [27] 102% | viability, T/C [28] 98.9% | viability, T/C [29] 99% | viability, T/C [30] 96.7% | viability, T/C [31] 101% | viability, T/C [32] 101% | viability, T/C [33] 115% | viability, T/C [34] 100% | viability, T/C [35] 94.7% | viability, T/C [36] 80.4%
> 10 µM: IC50 (second compound 0.0316 µM) | IC50 (second compound 0.1 µM) | IC50 (second compound 0.316 µM) | IC50 (second compound 1 µM) | IC50 (second compound 3.16 µM) | IC50 (second compound 10 µM)
